Read-outs that look alike come from different tables or passages of the source.
How the values were obtained:
[1] = biological target: T1, urease (Canavalia ensiformis, UniProt P07374); test: biochemical; type: biochemical
Protocol: The inhibitory potential of the compounds was assessed using a slightly modified indophenol method ([Hina et al., 2023]). In 96-well plates, a mixture consisting of 50 µL urease, 30 µL buffer solution (phosphate buffer, sodium salicylate, sodium nitroprusside, and EDTA, pH 8.0), 10 µL urea substrate (100 mM), and 10 µL of the test compound (1 mM) was subjected to pre-incubation for 10 min at room temperature. Subsequently, an alkali reagent (70 µL) was promptly introduced into each well. Then, 30 min later, the absorbance at 630 nm for all samples was measured using a BioTek ELx800 instrument from BioTek Instruments, Inc., United States. The data were collected for all experiments performed in triplicate, and the percentage of inhibitory activities was assessed utilizing the following formula: Percentage of inhibition=100 – Absorbance of compound/Absorbance of control × 100.

[2] = biological target: T1, urease; test: Kinetic study (Lineweaver–Burk / Michaelis–Menten) of urease inhibition; type: biochemical; conditions: Lineweaver–Burk plots; 5j at 0, 2.55, 5.11, 7.65 μM
Source text: By using Lineweaver–Burk graphs, we determined the mechanism of action of the leading compound 5j against urease. We evaluated the effect of the inhibitor on K m and V max using reciprocal 1/S and 1/V of the product concentration and calculated the inhibition type. The slope K m /V max of each line was schemed against different concentrations of the substrate and inhibitor. In kinetic studies of the potent compound, different concentrations of the compound and substrate were used. Different concentrations of 1 mM 5j were 0, 2.55, 5.11, and 7.65 μM, and different concentrations of the substrate were 0, 25, 50, 100, and 150 mM.
The type of inhibitory action was determined by using […] different concentrations of the substrate (0, 2.5, 5, 10, and 15 mM) in the absence and presence of different concentrations of inhibitor 5j (0, 2.55, 5.11, and 7.65 μM).

[3] = biological target: T1, urease; conditions: read-out: IC50 (urease); Figure 1; ref Khan et al., 2024; cited from earlier work

T1 sequence (P07374 whole entry, looked up): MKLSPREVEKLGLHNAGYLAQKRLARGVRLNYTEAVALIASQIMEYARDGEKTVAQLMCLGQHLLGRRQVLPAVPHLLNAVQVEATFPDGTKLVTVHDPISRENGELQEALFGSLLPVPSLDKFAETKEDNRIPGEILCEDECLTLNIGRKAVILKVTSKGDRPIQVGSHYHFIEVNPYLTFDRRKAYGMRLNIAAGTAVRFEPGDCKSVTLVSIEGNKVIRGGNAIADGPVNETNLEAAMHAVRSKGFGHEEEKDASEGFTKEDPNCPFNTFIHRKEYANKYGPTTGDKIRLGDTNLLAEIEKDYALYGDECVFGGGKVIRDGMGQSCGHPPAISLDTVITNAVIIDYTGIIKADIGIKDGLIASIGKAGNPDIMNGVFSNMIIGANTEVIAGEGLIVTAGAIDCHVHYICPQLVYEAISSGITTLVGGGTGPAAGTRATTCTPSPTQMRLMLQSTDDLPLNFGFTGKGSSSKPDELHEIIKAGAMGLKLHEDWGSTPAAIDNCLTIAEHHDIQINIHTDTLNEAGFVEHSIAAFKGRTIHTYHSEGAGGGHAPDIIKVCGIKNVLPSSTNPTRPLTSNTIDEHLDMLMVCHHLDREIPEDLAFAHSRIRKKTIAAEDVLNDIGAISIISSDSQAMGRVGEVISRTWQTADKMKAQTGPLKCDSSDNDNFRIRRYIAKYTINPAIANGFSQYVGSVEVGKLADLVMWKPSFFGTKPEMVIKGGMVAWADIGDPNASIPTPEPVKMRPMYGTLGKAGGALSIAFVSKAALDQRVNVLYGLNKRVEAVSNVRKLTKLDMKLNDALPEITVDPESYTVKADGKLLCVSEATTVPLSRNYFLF

Row | SMILES | IC50 [1] | melting point | type of inhibition against urease [2] | IC50 [3] | IC50 ([1]; indophenol method, urea substrate 100 mM, pH 8.0, triplicate, read-out: Urease inhibition: IC50 ± SEM)
1 | O=C(CSC(=S)N1CCN(c2ncccc2[N+](=O)[O-])CC1)Nc1ccccc1 [Compound 5a, 2-Oxo-2-(phenylamino)ethyl 4-(3-nitropyridin-2-yl)piperazine-1-carbodithioate] | 18.7 ± 0.52 µM | 119 to 120 °C | – | – | –
2 | O=C(CSC(=S)N1CCN(c2ncccc2[N+](=O)[O-])CC1)Nc1ccccc1Cl [Compound 5b, 2-((2-Chlorophenyl)amino)-2-oxoethyl 4-(3-nitropyridin-2-yl)piperazine-1-carbodithioate] | 41.03 ± 0.23 µM | 114 to 116 °C | – | – | –
3 | O=C(CSC(=S)N1CCN(c2ncccc2[N+](=O)[O-])CC1)Nc1cccc(Cl)c1 [Compound 5c, 2-((3-Chlorophenyl)amino)-2-oxoethyl 4-(3-nitropyridin-2-yl)piperazine-1-carbodithioate] | 37.33 ± 0.19 µM | 121 to 122 °C | – | – | –
4 | O=C(CSC(=S)N1CCN(c2ncccc2[N+](=O)[O-])CC1)Nc1ccc(Cl)cc1 [Compound 5d, 2-((4-Chlorophenyl)amino)-2-oxoethyl 4-(3-nitropyridin-2-yl)piperazine-1-carbodithioate] | 55.69 ± 0.2 µM | 143 to 144 °C | – | – | –
5 | O=C(CSC(=S)N1CCN(c2ncccc2[N+](=O)[O-])CC1)Nc1cccc(Br)c1 [Compound 5e, 2-((3-Bromophenyl)amino)-2-oxoethyl 4-(3-nitropyridin-2-yl)piperazine-1-carbodithioate] | 32.53 ± 0.2 µM | 110 to 112 °C | – | – | –
6 | O=C(CSC(=S)N1CCN(c2ncccc2[N+](=O)[O-])CC1)Nc1ccc(Br)cc1 [Compound 5f, 2-((4-Bromophenyl)amino)-2-oxoethyl 4-(3-nitropyridin-2-yl)piperazine-1-carbodithioate] | 21.3 ± 0.7 µM | 136 to 138 °C | – | – | –
7 | O=C(CSC(=S)N1CCN(c2ncccc2[N+](=O)[O-])CC1)Nc1ccccc1[N+](=O)[O-] [Compound 5g, 2-((2-Nitrophenyl)amino)-2-oxoethyl 4-(3-nitropyridin-2-yl)piperazine-1-carbodithioate] | 16.84 ± 0.12 µM | 149 to 151 °C | – | – | –
8 | O=C(CSC(=S)N1CCN(c2ncccc2[N+](=O)[O-])CC1)Nc1cccc([N+](=O)[O-])c1 [Compound 5h, 2-((3-Nitrophenyl)amino)-2-oxoethyl 4-(3-nitropyridin-2-yl)piperazine-1-carbodithioate] | 27 ± 2.15 µM | 174 to 175 °C | – | – | –
9 | O=C(CSC(=S)N1CCN(c2ncccc2[N+](=O)[O-])CC1)Nc1ccc([N+](=O)[O-])cc1 [Compound 5i, 2-((4-Nitrophenyl)amino)-2-oxoethyl 4-(3-nitropyridin-2-yl)piperazine-1-carbodithioate] | 45.41 ± 0.23 µM | 168 to 169 °C | – | – | –
10 | Cc1ccccc1NC(=O)CSC(=S)N1CCN(c2ncccc2[N+](=O)[O-])CC1 [Compound 5j, 2-Oxo-2-(o-tolylamino)ethyl 4-(3-nitropyridin-2-yl)piperazine-1-carbodithioate] | 5.16 ± 2.68 µM | – | mixed type of inhibition | – | –
11 | Cc1cccc(NC(=O)CSC(=S)N2CCN(c3ncccc3[N+](=O)[O-])CC2)c1 [Compound 5k, 2-Oxo-2-(m-tolylamino)ethyl 4-(3-nitropyridin-2-yl)piperazine-1-carbodithioate] | 18.3 ± 0.17 µM | 101 to 103 °C | – | – | –
12 | Cc1ccc(NC(=O)CSC(=S)N2CCN(c3ncccc3[N+](=O)[O-])CC2)cc1 [Compound 5l, 2-Oxo-2-(p-tolylamino)ethyl 4-(3-nitropyridin-2-yl)piperazine-1-carbodithioate] | 10.6 ± 0.36 µM | – | – | – | –
13 | COc1ccccc1NC(=O)CSC(=S)N1CCN(c2ncccc2[N+](=O)[O-])CC1 [Compound 5m, 2-((2-Methoxyphenyl)amino)-2-oxoethyl 4-(3-nitropyridin-2-yl)piperazine-1-carbodithioate] | 8.17 ± 0.37 µM | – | – | – | –
14 | COc1ccc(NC(=O)CSC(=S)N2CCN(c3ncccc3[N+](=O)[O-])CC2)cc1 [Compound 5n, 2-((4-Methoxyphenyl)amino)-2-oxoethyl 4-(3-nitropyridin-2-yl)piperazine-1-carbodithioate] | 17.8 ± 0.29 µM | 151 to 153 °C | – | – | –
15 | O=C(Nc1ccccc1)c1ccc(CSC(=S)N2CCN(c3ncccc3[N+](=O)[O-])CC2)cc1 [Compound 7a, 4-(Phenylcarbamoyl)benzyl 4-(3-nitropyridin-2-yl)piperazine-1-carbodithioate] | 11.7 ± 0.26 µM | 142 to 143 °C | – | – | –
16 | O=C(Nc1ccccc1Cl)c1ccc(CSC(=S)N2CCN(c3ncccc3[N+](=O)[O-])CC2)cc1 [Compound 7b, 4-((2-Chlorophenyl)carbamoyl)benzyl 4-(3-nitropyridin-2-yl)piperazine-1-carbodithioate] | 32.53 ± 0.31 µM | 109 to 110 °C | – | – | –
17 | O=C(Nc1cccc(Cl)c1)c1ccc(CSC(=S)N2CCN(c3ncccc3[N+](=O)[O-])CC2)cc1 [Compound 7c, 4-((3-Chlorophenyl)carbamoyl)benzyl 4-(3-nitropyridin-2-yl)piperazine-1-carbodithioate] | 10.8 ± 0.52 µM | 140 to 141 °C | – | – | –
18 | O=C(Nc1ccc(Cl)cc1)c1ccc(CSC(=S)N2CCN(c3ncccc3[N+](=O)[O-])CC2)cc1 [Compound 7d, 4-((4-Chlorophenyl)carbamoyl)benzyl 4-(3-nitropyridin-2-yl)piperazine-1-carbodithioate] | 43.11 ± 0.31 µM | 147 to 148 °C | – | – | –
19 | O=C(Nc1cccc(Br)c1)c1ccc(CSC(=S)N2CCN(c3ncccc3[N+](=O)[O-])CC2)cc1 [Compound 7e, 4-((3-Bromophenyl)carbamoyl)benzyl 4-(3-nitropyridin-2-yl)piperazine-1-carbodithioate] | 16.5 ± 0.28 µM | 141 to 142 °C | – | – | –
20 | O=C(Nc1ccc(Br)cc1)c1ccc(CSC(=S)N2CCN(c3ncccc3[N+](=O)[O-])CC2)cc1 [Compound 7f, 4-((4-Bromophenyl)carbamoyl)benzyl 4-(3-nitropyridin-2-yl)piperazine-1-carbodithioate] | 16.8 ± 0.29 µM | 162 to 164 °C | – | – | –
21 | O=C(Nc1ccccc1[N+](=O)[O-])c1ccc(CSC(=S)N2CCN(c3ncccc3[N+](=O)[O-])CC2)cc1 [Compound 7g, 4-((2-Nitrophenyl)carbamoyl)benzyl 4-(3-nitropyridin-2-yl)piperazine-1-carbodithioate] | 56.89 ± 0.31 µM | 133 to 134 °C | – | – | –
22 | O=C(Nc1cccc([N+](=O)[O-])c1)c1ccc(CSC(=S)N2CCN(c3ncccc3[N+](=O)[O-])CC2)cc1 [Compound 7h, 4-((3-Nitrophenyl)carbamoyl)benzyl 4-(3-nitropyridin-2-yl)piperazine-1-carbodithioate] | 47.94 ± 0.25 µM | 165 to 166 °C | – | – | –
23 | O=C(Nc1ccc([N+](=O)[O-])cc1)c1ccc(CSC(=S)N2CCN(c3ncccc3[N+](=O)[O-])CC2)cc1 [Compound 7i, 4-((4-Nitrophenyl)carbamoyl)benzyl 4-(3-nitropyridin-2-yl)piperazine-1-carbodithioate] | 10.5 ± 0.34 µM | – | – | – | –
24 | Cc1ccccc1NC(=O)c1ccc(CSC(=S)N2CCN(c3ncccc3[N+](=O)[O-])CC2)cc1 [Compound 7j, 4-(o-Tolylcarbamoyl)benzyl 4-(3-nitropyridin-2-yl)piperazine-1-carbodithioate] | 12.3 ± 0.27 µM | 113 to 115 °C | – | – | –
25 | Cc1cccc(NC(=O)c2ccc(CSC(=S)N3CCN(c4ncccc4[N+](=O)[O-])CC3)cc2)c1 [Compound 7k, 4-(m-Tolylcarbamoyl)benzyl 4-(3-nitropyridin-2-yl)piperazine-1-carbodithioate] | 10.7 ± 0.26 µM | – | – | – | –
26 | Cc1ccc(NC(=O)c2ccc(CSC(=S)N3CCN(c4ncccc4[N+](=O)[O-])CC3)cc2)cc1 [Compound 7l, 4-(P-tolylcarbamoyl)benzyl 4-(3-nitropyridin-2-yl)piperazine-1-carbodithioate] | 37.54 ± 0.26 µM | 158 to 160 °C | – | – | –
27 | COc1ccccc1NC(=O)c1ccc(CSC(=S)N2CCN(c3ncccc3[N+](=O)[O-])CC2)cc1 [Compound 7m, 4-((2-Methoxyphenyl)carbamoyl)benzyl 4-(3-nitropyridin-2-yl)piperazine-1-carbodithioate] | 18.7 ± 0.27 µM | 166 to 167 °C | – | – | –
28 | COc1ccc(NC(=O)c2ccc(CSC(=S)N3CCN(c4ncccc4[N+](=O)[O-])CC3)cc2)cc1 [Compound 7n, 4-((4-Methoxyphenyl)carbamoyl)benzyl 4-(3-nitropyridin-2-yl)piperazine-1-carbodithioate] | 24 ± 0.27 µM | 187 to 189 °C | – | – | –
29 | CN(Cc1ccccc1)C(=S)SCc1ccccc1 [S-benzyl substituted carbodithioate] | – | – | – | 0.75 ± 0.04 µM | –
30 | NC(N)=S [Thiourea, thiourea, reference compound] | – | – | – | – | 23 ± 0.03 µM
